Data reported in patent publication US20240100133A1, “ENZYMATICALLY INACTIVE GRANZYME A AND USES THEREFORE” (Saint Louis University, priority 2022, published 2024).

Tested on: Connaught BCG within primary CD14+ human monocytes
Format: cell-based

## PACMA-31 [reference compound]
PACMA-31 200 nM or Rutin 50 μM pretreatment combined with GzmA-WT
  effect of PDIA1 inhibitor on GzmA-mediated mycobacterial inhibition, BCG: enhanced mycobacterial inhibitory activity
PACMA-31 200 nM or Rutin 50 μM, 30 min pretreatment, no GzmA
  intracellular bacterial burden, PDIA1 inhibitor alone: did not influence the intracellular bacterial burden
